From patent US20050130252A1, “Stabilized susceptibility tests of aerobic pathogens” (Wyeth Holdings Corporation, priority 2003, published 2005)
≈ marks a conversion by molar mass, not a printed value. Where two headings read alike, the source gives them in different places.

Key:
[1] = HPLC analysis of early peak formation of tigecycline in water and MHB; type: physicochemical; settings: stored overnight at RT
Experimental: To test the hypothesis, solutions of tigecycline were prepared in water, fresh MHB and aged MHB. The solutions were stored overnight at RT, then subjected to HPLC analysis to look for degradation of tigecycline. […] This confirmed that the formation of early peak of tigecycline was accelerated in the aged media.
In experiment 1 three experimental test samples were examined for early peak formation of tigecycline. In experiment 2 six experimental test samples were evaluated to determine the early peak of tigecycline which occurs in 24 hours. Results are as listed below:
Tigecycline at a concentration of 1 mg/mL in each of the above vehicles was prepared, assayed at time zero and 1 day @ RT.
The HPLC parameters are listed below: • HPLC column: Luna C18(2), 5 μm, 4.6×150 mm • Detection: UV @ 250 nm • Flow Rate: 1.5 mL/min • Injection volume=30 μL • Mobile Phase A: 6.8 g KH2PO4 in 950 mL water, pH to 6.2 with KOH, mixed with 50 mL acetonitrile • Mobile Phase B: 6.8 g KH2PO4 in 500 mL water, pH to 6.2 with KOH, mixed with 500 mL acetonitrile

[2] = test system: Escherichia coli GC2270 tet(M); test: Broth microdilution MIC; type: cell-based; settings: for MIC: Escherichia coli, read-out: Minimal Inhibitory Concentration
Experimental: (§1) The process for preparing susceptibility test medium are the following steps: • a. Preparing Mueller Hinton Broth II medium by adding 22 grams powdered media to 1.0 liter distilled water; • b. Autoclaving (121° C., 15 psi, 15 minutes) and cooling the medium; • c. Adding Oxyrase® up to about 10% final volume and keeping at 35-37° C. in an incubator for 30 minutes; • d. Adding about 50 μL to each well of a 96 well microtiter plate; • e. Weighing drug and adding broth to drug to bring up to about (standard 128 μg/ml); • f. Adding 50 μL of the drug to the first column of the titer plate; • g. Diluting by two-fold serial diluting across or down the plate. • h. Preparing a Prompt™ inoculum at 10^8 CFU/ml; • i. Diluting inoculum 1:100 in the broth at […] in 9.9 ml (1:100) is 10^6 colony forming units (CFU) forming the adjusted inoculum; • j. Adding 50 μL of the adjusted inoculum to the wells of the microtiter plate; • k. Incubating the plates at 35-37° C. for 18-22 hours; and • l. Reading, with the unaided eye, the MIC.
(§2) The in vitro activities of tigecycline and control antibiotics were determined by the broth microdilution method as recommended by the NCCLS. (National Committee for Clinical Laboratory Standards, 2003. Methods for Dilution Antimicrobial Susceptibility Tests for Bacteria That Grow Aerobically; Approved Standards: M7-A6, Sixth ed, vol. 23., National Committee for Clinical Laboratory Standards Wayne, Pa.) was used for the standard procedures. MBH with 5% lysed horse blood was used for testing S. pneumoniae and Haemophilus Test Medium was used for testing H. influenzae. Oxyrase® (Oxyrase Inc, Mansfield, Ohio) was used according to the manufacturer's instructions by adding 1 ml of Oxyrase® to 50 ml of media. Media age studies were performed by preparing MHB in multiple flasks, then storing the media under various conditions. MICs were usually performed in duplicate on each day of testing. Storage under anaerobic conditions was conducted in an anaerobic chamber (MACS MG 1000, Don Whitley Scientific LTD). The pH of the media was determined by pH meter (Corning 430). A comparison of the in vitro activity of tigecycline by agar and broth dilution methodolgies with and without Oxyrase® against clinical isolates is shown in Table 1.

[3] = test system: Enterococcus faecalis GC2242 Vancomycin-Resistant; test: Broth microdilution MIC; type: cell-based; settings: for In Vitro Activity of Tigecycline: Broth, E. faecalis GC2242 Vancomycin-Resistant; for MIC: Enterococcus faecalis, read-out: Minimal Inhibitory Concentration
Experimental: as §1, §2

[4] = test system: Candida albicans GC3066 ATCC Control; test: Broth microdilution MIC; type: cell-based; settings: for In Vitro Activity of Tigecycline: Broth, C. albicans GC3066 ATCC Control; for MIC: Candida albicans, C. albicans GC3066 ATCC (Control), read-out: Minimal Inhibitory Concentration
Experimental: as §1, §2

CN(C)c1cc(NC(=O)CNC(C)(C)C)c(O)c2c1C[C@H]1C[C@H]3[C@H](N(C)C)C(O)=C(C(N)=O)C(=O)[C@@]3(O)C(O)=C1C2=O [Tigecycline, tigecycline]
Amount of the early peak (HPLC) relative to the amount in water (ratio) ([1]; tigecycline solution in aged MHB): about 35
Amount of the early peak (HPLC) relative to the amount in water ([1]; tigecycline solution in fresh MHB): about 12 times
In Vitro Activity of Tigecycline ([2]; Broth, no Oxyrase, E. coli GC2270 tet(M)): 0.50
MIC ([2]; 336 h): 0.25 µg/mL (≈ 0.427 µM)
MIC [2]: 0.06 µg/mL (≈ 0.102 µM)
In Vitro Activity of Tigecycline ([3]; Oxyrase (2%)): 0.12
In Vitro Activity of Tigecycline ([3]; no Oxyrase): 0.50
MIC ([3]; 336 h): 0.12 µg/mL (≈ 0.205 µM)
MIC [3]: 0.06 µg/mL (≈ 0.102 µM)
In Vitro Activity of Tigecycline ([4]; Oxyrase (2%)): >16
In Vitro Activity of Tigecycline ([4]; no Oxyrase): >16
MIC ([4]; 336 h, Aged Media (two weeks at RT)): > 8 µg/mL
MIC ([4]; Fresh Media): > 8 µg/mL
